Tests used:
[1] = system: MCF-7 cells; assay: PDT cytotoxicity by CCK-8 assay; assay type: cell-based, Human
Method: (§1) Photodynamic therapy setup: Cells were exposed to laser with the power of 100 mW/cm^2 for 5 min. The light source with a wavelength of 396 nm that was generated by an optical fiber was collimated to an aperture and irradiated to the 35 mm cell culture dish. The position of the cell culture plate was manually controlled by a dual-axis electric linear platform. After the treatment, cells were cultured in fresh medium for 4 h and then prepared for different analyses.
Cell culture: Human breast cancer cell line (MCF-7) was obtained from the Shanghai Cell Bank. […]
Cell viability test: In the pilot study, MCF-7 cells were divided randomly into eight groups: (1) control, (2) laser alone, (3) PpIX alone, (4) PpIX plus laser (PDT), (5) PpIX+GVs+laser (PDT+GVs), (6) PpIX+oxyGVs+laser (PDT+oxy-GVs), (7) GVs+laser, and (8) oxyGVs+laser. […] Cell viability at the different time points following PDT was determined using a Cell Counting Kit-8 (Sigma-Aldrich) according to the manufacturer's instructions. […] Cytotoxicity was determined by adding 10 μl CCK-8 reagent per well for 1 h at 37° C. in 5% CO2. The absorbance of the treated samples against a blank control was measured at 450 nm as the detection wavelength. The viability of treated cells was determined by comparing to the untreated ones in the control group.

[2] = Singlet oxygen generation in cell free system under ultrasound (SOSG); details: alone; PpIX 10 μM, GVs 2 nM
Method: SDT setup: 1 MHz planar ultrasound transducer with diameter of 5 cm (Olympus, Tokyo, Japan) was used for sonification in this study. Function generator (AFG 3251, Tektronix Company, Oregon, USA) and power amplifier (Model 500 A250 CAR; Souderton, Pa., USA) were used to generate ultrasonic pulses. Cells were exposed to ultrasound 10 cm away from transducer coupled by degassed deionized water at 25° C. Acoustic intensity and field were characterized by hydrophone (HGL-200; Onda, Sunnyvale, Calif., USA). The spatial peak temporal average intensity was measured to be 8 W/cm^2; the duty cycle was 20% with fixed pulse repetition frequency (PRF) of 1000 Hz. The overall sonification duration was 5 min. The temperature increase in cell-culture experiment solution was controlled within 2.5° C. After the ultrasound treatment, cells were cultured in fresh medium for 4 h and then prepared for different analyses.
Generation of singlet oxygen: SOSG (10 μM) was used to detect singlet oxygen generation. The solution was exposed to ultrasound and protected from light during the exposure time. The fluorescence intensity of SOSG was measured by microplate reader at an excitation wavelength of 488 nm and an emission wavelength of 530 nm.

[3] = system: MCF-7 cells; assay: Cell apoptosis after PDT by Annexin V/PI flow cytometry; assay type: cell-based, Human; details: PDT (PpIX plus laser)
Method: as §1
Cell apoptosis test: Cells were seeded at a density of 5×10^5 cells in 6-cm dishes and incubated for 24 h. Alexa Fluor 488 Annexin V/Dead Cell Apoptosis Kit (Thermo Fisher Scientific) was used to measure cell apoptosis according to the manufacturer's instructions. Cells were collected and incubated with 5 μL of the annexin V conjugate and 1 μL of the PI working solution at room temperature for 15 min. The cells were analyzed by FACS Calibur flow cytometer and BD Accuri C6 Software (Becton-Dickinson, USA).

[4] = system: SCC7 tumor-bearing nude mice; assay: Biodistribution by NIR fluorescence imaging in tumor-bearing mice; assay type: in vivo
Method: Animal experiments were conducted under protocols approved by Animal Care and Use Committee (CC/ACUCC) of Hong Kong Polytechnic University. Suspension of 4×10^6 SCC7 cells in PBS (80 μL) was injected to subcutaneous sites in athymic nude mice (seven weeks old, female, 20-24 g). When the tumor size (in the right leg region) reached average size of 120 mm^3, mice were randomly allocated into three groups, (a) injecting free ICG solution into the tail veins of mice; (b) injecting ICG labelled GVs solution into the tail veins of mice; and (c) injecting ICG labelled PH-GVs solution into the tail veins of mice. Fluorescent imagines were acquired at 0, 0.5, 1, 2, 4, 8, 12, 24 and 48 h after injection using IVIS Lumina II (Caliper Life Sciences, USA; Excitation Filter: 780 nm, Emission Filter: 800 nm).
At the time of highest accumulation after one-dose injection, SCC7 tumors and normal organs (hearts, livers, spleens, kidneys, lungs and muscles) were collected for acquisition of Fluorescent signal intensity.

## C=CC1=C(C)c2cc3[nH]c(cc4[nH]c(cc5nc(cc1n2)C(C)=C5C=C)c(C)c4CCC(=O)O)c(CCC(=O)O)c3C [PpIX]
[1]; PpIX alone, no laser
  effects on cell viability: no effects
[1]; PpIX+laser (ALA-PDT), 4 h following PDT
  cell viability: 75%
[2]
  SOSG fluorescence intensity before and after ultrasound treatment: increased significantly
[3]
  viable cells: 74.7%

## CC1(C)C(/C=C/C=C/C=C/C=C2\N(CCCCS(=O)(=O)[O-])c3ccc4ccccc4c3C2(C)C)=[N+](CCCCS(=O)(=O)[O-])c2ccc3ccccc3c21.[Na+] [ICG]
[4]; after intravenous injection, PH-GVs at 8 h
  fluorescence at tumor sites (in vivo imaging): no strong fluorescence signal
[4]; early time points (0.5-2 h) for ICG/GVs, up to 8 h for PH-GVs
  fluorescence signals in the normal organs (in vivo imaging): considerable fluorescence signals
